Reference: PubChem BioAssay (NCI)
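Briefly, cells in 96-well plates were exposed to five compound concentrations for 48 h, and endpoints were estimated by linear interpolation. Abbreviation: GI50, concentration required for 50% inhibition of growth. TGI: total growth inhibition.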 Where a SMILES comes first, the peptide text is derived from it. [ ]: non-standard residue; d: D form. The star is where a group is joined. ξ: configuration not given here. 4Abz = Nc1ccc(C(=O)O)cc1; ξL = CC(C)CC(N)C(=O)O; NHOH = ON*

Experiments:
Experiment in all cases: DTP human tumour cell line panel, 48 h
HCC-2998 colon = system: HCC-2998 colon
HOP-62 NSCLC = system: HOP-62 NSCLC
LOX IMVI melanoma = system: LOX IMVI melanoma
MALME-3M melanoma = system: MALME-3M melanoma
NCI-H23 lung = system: NCI-H23 lung
NCI-H522 lung = system: NCI-H522 lung
SF-539 CNS = system: SF-539 CNS
SK-MEL-28 melanoma = system: SK-MEL-28 melanoma
SK-OV-3 ovarian = system: SK-OV-3 ovarian
UACC-62 melanoma = system: UACC-62 melanoma

Row | Compound | GI50 (HCC-2998 colon) [nM] | TGI (HCC-2998 colon) [µM] | GI50 (HOP-62 NSCLC) [µM] | TGI (HOP-62 NSCLC) [µM] | GI50 (LOX IMVI melanoma) [nM] | TGI (LOX IMVI melanoma) [µM] | GI50 (MALME-3M melanoma) [nM] | TGI (MALME-3M melanoma) [µM] | GI50 (NCI-H23 lung) [µM] | TGI (NCI-H23 lung) [µM] | GI50 (NCI-H522 lung) [µM] | TGI (NCI-H522 lung) [µM] | GI50 (SF-539 CNS) [nM] | TGI (SF-539 CNS) [µM] | GI50 (SK-MEL-28 melanoma) [nM] | TGI (SK-MEL-28 melanoma) [µM] | GI50 (SK-OV-3 ovarian) [µM] | TGI (SK-OV-3 ovarian) [µM] | GI50 (UACC-62 melanoma) [nM] | TGI (UACC-62 melanoma) [µM]
1 | CC(C)CC(NC(=O)[C@@H]1CCCN1C(=O)CNC(=O)c1ccc(N)cc1)C(=O)N[C@H](C)C(=O)NO (some centres undefined) (H-[4Abz]GP[ξL][dA]-{NHOH}) | > 100000 | > 100 | > 100 | > 100 | > 100000 | > 100 | > 100000 | > 100 | > 100 | > 100 | > 100 | > 100 | > 100000 | > 100 | > 100000 | > 100 | > 100 | > 100 | > 100000 | > 100
2 | N=C(N)c1ccc(-c2ccc(-c3ccco3)o2)cc1 | 1850 | 3.42 | 10.4 | 23 | 2230 | 5.2 | 2150 | 4.12 | 11 | 26.6 | 3.73 | 14.6 | 8960 | 21.5 | 2310 | 6.22 | 9.21 | 21.2 | 1820 | 3.9
3 | COc1cc2c(cc1OC)[C@@H]1[C@H](C2=O)c2ccc([N+](=O)[O-])cc2C(=O)N1CCCBr | 2660 | > 100 | < 0.0277 | 0.709 | 200 | 0.81 | 367 | 3.09 | < 0.01 | 1.8 | 0.574 | 29.4 | 387 | 2.29 | 2540 | > 100 | 1.32 | > 100 | < 46 | 1.16
4 | CCOC(=O)C(=C=Cc1cccs1)C(=O)c1ccccc1 |  | 31.2 |  | 33.9 |  | 24.9 |  | 29.3 |  | 28.8 |  | 28.3 |  | 30.6 |  | 28 |  | 62.8 |  | 30.3
5 | CC(=O)OCC1OC(n2c(-c3ccc(N)cc3)cc(-c3ccco3)c(C#N)c2=O)C(OC(C)=O)C(OC(C)=O)C1OC(C)=O (centres undefined) |  | > 50 |  | > 50 |  | > 50 |  | > 50 |  | > 50 |  | > 50 |  | 30.2 |  | > 50 |  | > 50 |  | > 50
6 | Nc1ccc(Cl)cc1.Nc1ccc(Cl)cc1.Nc1ccc(Cl)cc1.O=C([O-])C(=O)[O-].O=C([O-])C(=O)[O-].[H+].[Ru+5] | 439 |  | 0.691 |  | > 100000 | > 100 |  | > 100 | > 19.8 | > 100 |  | > 100 | 352 | > 100 |  | > 100 | > 100 | > 100 | < 17.4 | 
7 | COC(=O)C1=C(SC)SC2(C(=O)OC)C3C=C(C)C4C(N13)C42C(=O)OC (centres undefined) |  | > 100 |  | > 100 |  | > 100 |  | > 100 |  | > 100 |  | > 100 |  | > 100 |  | > 100 |  | > 100 |  | > 100
8 | O=C(CCCCCCCCC(=O)OCCCn1cc(C(=O)NC(=O)OCc2ccccc2)c(=O)[nH]c1=O)OCCCn1cc(C(=O)NC(=O)OCc2ccccc2)c(=O)[nH]c1=O |  | > 100 |  | > 100 |  | > 100 |  | > 100 |  | > 100 |  | > 100 |  | > 100 |  | > 100 |  | > 100 |  | > 100
9 | Clc1cc(Cl)c2n[se]nc2c1 |  | > 100 |  | > 100 |  | > 100 |  | > 100 |  | > 100 |  | > 100 |  | > 100 |  | > 100 |  | > 100 |  | > 100
10 | COC1=C(NC(C)=O)C(=O)c2nc3n(c2C1=O)CCC3 |  | 65.8 |  | 39.9 |  | 31.8 |  | 34.8 |  | 39 |  | 40.1 |  | 32.9 |  | 32.9 |  | > 100 |  | 32.4
11 | COc1ccc(NC(=O)CC(=O)n2nc(-c3ccccc3)c(N=Nc3ccc(C)cc3)c2-c2ccccc2)cc1 |  | > 100 |  | 38.4 |  | > 100 |  | 70.3 |  | 54 |  | 48.3 |  | 44 |  | > 100 |  | 40 |  | 49.5
12 | COC1=CC(=O)c2c(O)c3c(c(O)c2C1=O)CC(C)(O)OC3 (centres undefined) |  | 13.9 |  | 12.7 |  | 12.9 |  | 2.1 |  | 8.42 |  | 7.24 |  | 9.66 |  | 31.5 |  | 58.9 |  | 7.35
